# From ChEMBL document CHEMBL4732091, “Design, synthesis and biological evaluation of novel thiosemicarbazone-indole derivatives targeting prostate cancer cells” (Eur J Med Chem, 2021)
# pIC50: −log10 of the molar value. Activity calls are given as the source filed them. The calls are words filed in the database; no cut-off is given here.
# Columns and labels:
# PC-3 [1] = test: Induction of apoptosis in human PC-3 cells assessed as increase in p53 expression at 25 to 100 nM measured by Western blot assay; format: functional, cell-based; details: dose 25-100 nM
# PC-3 [2] = test: Antiproliferative activity against human PC-3 cells assessed as inhibition of cell proliferation measured after 24 to 72 hrs by MTT assay; format: functional, cell-based; details: dose 0.156-20 µM, time 24-72 hrs
# DU-145 [3] = test: Induction of ROS generation in human DU-145 cells assessed as intracellular ROS level at 6 uM measured after 48 hrs by DCFH-DA staining based flowcytometry method (reference value: 52 %); format: functional
# PC-3 [4] = test: Induction of cell cycle arrest in human PC-3 cells assessed as accumulation of cells in G1/S phase at 250 nM measured after 48 hrs by propidium iodide staining based flowcytometry method (reference value: 19.23%); format: functional
# DU-145 [5] = test: Induction of ROS generation in human DU-145 cells assessed as increase in intracellular ROS level measured after 48 hrs by DCFH-DA staining based flowcytometry method; format: functional, cell-based; details: dose 0.5-2 µM
# PC-3 [6] = test: Antiproliferative activity against human PC-3 cells assessed as inhibition of cell proliferation measured after 72 hrs by MTT assay; format: functional, cell-based; details: PC-3, 72 h
# DU-145 [7] = test: Induction of ROS generation in human DU-145 cells assessed as intracellular ROS level at 3 uM measured after 48 hrs by DCFH-DA staining based flowcytometry method (reference value: 52 %); format: functional
# PC-3 [8] = test: Induction of ROS generation in human PC-3 cells assessed as increase in intracellular ROS level at 250 nM pretreated with NAC followed by compound treatment measured after 48 hrs by DCFH-DA staining based flowcytometry method; format: functional, cell-based
# PC-3 [9] = test: Induction of apoptosis in human PC-3 cells assessed as viable cells at 100 nM measured after 72 hrs by Annexin V-FITC/propidium iodide staining based flow cytometry method (reference value: 97.2 %); format: functional; details: read-out: Activity
# DU-145 [10] = test: Induction of apoptosis in human DU-145 cells assessed as early apoptotic cells at 1 uM measured after 72 hrs by Annexin V-FITC/propidium iodide staining based flow cytometry method (reference value: 0.835 %); format: functional
# DU-145 [11] = test: Induction of apoptosis in human DU-145 cells assessed as nuclear fragmentation at 0.5 to 2 uM measured after 72 hrs by Hoechst staining based fluorescence method; format: functional, cell-based; details: dose 0.5-2 µM
# PC-3 [12] = test: Induction of apoptosis in human PC-3 cells assessed as necrotic cells at 25 nM measured after 72 hrs by Annexin V-FITC/propidium iodide staining based flow cytometry method (reference value: 1.2 %); format: functional
# PC-3 [13] = test: Induction of ROS generation in human PC-3 cells assessed as intracellular ROS level at 125 nM measured after 48 hrs by DCFH-DA staining based flowcytometry method (reference value: 55.2 %); format: functional
# [14] = Toxicity in C57BL/6 mouse assessed as effect on lung at 2 mg/kg, IG measured after 2 weeks by hematoxylin and eosin staining based imaging analysis; format: organism-based; details: in vivo, po, 336 h
# PC-3 [15] = test: Induction of apoptosis in human PC-3 cells assessed as early apoptotic cells at 50 nM measured after 72 hrs by Annexin V-FITC/propidium iodide staining based flow cytometry method (Rvb 0.452 %); format: functional
# DU-145 [16] = test: Antiproliferative activity against human DU-145 cell line cells assessed as inhibition of cell proliferation measured after 72 hrs by MTT assay; format: functional, cell-based; details: DU-145, 72 h
# DU-145 [17] = test: Induction of ROS generation in human DU-145 cells assessed as increase in intracellular ROS level at 250 nM pretreated with NAC followed by compound treatment measured after 48 hrs by DCFH-DA staining based flowcytometry method; format: functional, cell-based
# DU-145 [18] = test: Cytotoxicity against human DU-145 cells assessed as cell viability pre-treated with SB203580 for 4 hrs followed by compound treatment and measured after 72 hrs by MTT assay; format: functional, cell-based
# PC-3 [19] = test: Antiproliferative activity against human PC-3 cells assessed as inhibition of cell proliferation at 0.156 to 20 uM by MTT assay; format: functional, cell-based; details: dose 0.156-20 µM, time 24-72 hrs, TDE = time-dependent effect
# ECa-109 cell line = test: Antiproliferative activity against human ECa-109 cell line cells assessed as inhibition of cell proliferation measured after 72 hrs by MTT assay; format: functional, cell-based; details: ECa-109, 72 h
# PC-3 [20] = test: Induction of apoptosis in human PC-3 cells assessed as early apoptotic cells at 100 nM measured after 72 hrs by Annexin V-FITC/propidium iodide staining based flow cytometry method (reference value: 0.452 %); format: functional
# DU-145 [21] = test: Induction of apoptosis in human DU-145 cells assessed as formation of apoptotic bodies at 0.5 to 2 uM measured after 72 hrs by Hoechst staining based fluorescence method; format: functional, cell-based; details: dose 0.5-2 µM
# [22] = Toxicity in C57BL/6 mouse assessed as effect on spleen at 2 mg/kg, IG measured after 2 weeks by hematoxylin and eosin staining based imaging analysis; format: organism-based; details: in vivo, po, 336 h
# DU-145 [23] = test: Induction of apoptosis in human DU-145 cells assessed as increase in Bax expression at 0.5 to 2 uM measured by Western blot assay; format: functional, cell-based; details: dose 0.5-2 µM
# DU-145 [24] = test: Activation of MAPK signaling in human DU-145 cells assessed as increase in phosphorylated JNK (Thr 183/Tyr 185) at 125 to 500 nM measured by Western blot assay; format: cell-based; details: filed as activator, dose 125-500 nM
# [25] = Toxicity in BALB/c-NU mouse assessed as changes in body weight at 12.5 to 25 mg/kg, IG qd for 21 days measured every 2 days; format: organism-based; details: in vivo, po, 504 h, dose 12.5-25 mg/kg, time 21 day
# DU-145 [26] = test: Induction of ROS generation in human DU-145 cells assessed as intracellular ROS level at 3 uM pretreated with NAC followed by compound treatment measured after 48 hrs by DCFH-DA staining based flowcytometry method (reference value: 75.1 %); format: functional
# DU-145 [27] = test: Antiproliferative activity against human DU-145 cells assessed as inhibition of cell proliferation at 0.156 to 20 uM by MTT assay; format: functional, cell-based; details: dose 0.156-20 µM, time 24-72 hrs, TDE = time-dependent effect
# [28] = Cytotoxicity against human WPMY-1 cell line cells assessed as inhibition of cell proliferation measured after 72 hrs by MTT assay; format: cell-based; details: WPMY-1, 72 h
# PC-3 [29] = test: Induction of cell cycle arrest in human PC-3 cells assessed as accumulation at G1/S phase at 125 nM measured after 48 hrs by propidium iodide staining based flowcytometry method (reference value: 19.23%); format: functional
# DU-145 [30] = test: Induction of apoptosis in human DU-145 cells assessed as late apoptotic cells at 2 uM measured after 72 hrs by Annexin V-FITC/propidium iodide staining based flow cytometry method (reference value: 1.77 %); format: functional
# PC-3 [31] = test: Induction of apoptosis in human PC-3 cells assessed as viable cells at 50 nM measured after 72 hrs by Annexin V-FITC/propidium iodide staining based flow cytometry method (reference value: 97.2 %); format: functional; details: read-out: Activity
# DU-145 [32] = test: Antiproliferative activity against human DU-145 cells assessed as inhibition of cell proliferation measured after 24 to 72 hrs by MTT assay; format: functional, cell-based; details: dose 0.156-20 µM, time 24-72 hrs
# PC-3 [33] = test: Cytotoxicity against human PC-3 cells assessed as cell viability pre-treated with SB203580 for 4 hrs followed by compound treatment and measured after 72 hrs by MTT assay; format: functional, cell-based
smiles,measurement,setting,value
Cc1ccc(/C=N/NC(=S)Nc2ccc(C(=O)NCCc3c(C)[nH]c4ccccc34)cc2)nc1,Activity,PC-3 [1],Active
same,inhibition,PC-3 [2],Dose-dependent effect
same,Activity,DU-145 [3],86.2%
same,Activity,PC-3 [4],29.04%
same,Activity,DU-145 [5],Dose-dependent effect
same,pIC50,PC-3 [6],7.27
same,Activity,DU-145 [7],75.1%
same,Activity,PC-3 [8],inactive
same,viability at 0.1 µM,PC-3 [9],35.9%
same,Activity,DU-145 [10],10.6%
same,Activity,DU-145 [11],Active
same,Activity,PC-3 [12],2.06%
same,Activity,PC-3 [13],75.4%
same,Activity,[14],Non-Toxic
same,Activity,PC-3 [15],5.6%
same,pIC50,DU-145 [16],5.84
same,Activity,DU-145 [17],inactive
same,inhibition,DU-145 [18],inactive
same,Activity,PC-3 [19],Tde
same,pIC50,ECa-109 cell line,5.31
same,Activity,PC-3 [20],5.76%
same,Activity,DU-145 [21],Active
same,Activity,[22],Non-Toxic
same,Activity,DU-145 [23],Active
same,Activity,DU-145 [24],Active
same,Activity,[25],Non-Toxic
same,Activity,DU-145 [26],60.1%
same,Activity,DU-145 [27],Tde
same,pIC50,[28],4.71
same,Activity,PC-3 [29],19.98%
same,Activity,DU-145 [30],38.5%
same,viability at 0.05 µM,PC-3 [31],64%
same,inhibition,DU-145 [32],Dose-dependent effect
same,inhibition,PC-3 [33],inactive
